Data on 17 compounds can be found in patent US20240376123A1, “KRAS G12D INHIBITORS AND USES THEREOF” (SUZHOU ZANRONG PHARMA LIMITED, priority 2021, published 2024).

Where two headings read alike, the source gives them in different places.

The test system of this assay is p-ERK in PNAC-1/HPAC cell. Put plainly: Phospho-ERK 1/2 assay (Table 1). It is filed as cell-based. The method, then:
Allow PNAC-1/HPAC cell growth in a T75 flask in DMEM and 10% 1 fetal calf serum (FCS; Gibco), using standard tissue culture procedures until ˜80% confluency is achieved. Day 1, seed 6000 cells/well in 384 well plate and incubate at 37° C., 5% CO2. Add diluted compound by Echo 550, final DMSO is 0.5%, incubate cells at 37° C., 5% CO2 for 3 hours. Then, remove medium and fix cells with 3.7% formaldehyde in PBS (PFA) by Apricot. Wash with PBS once. Permeabilize cells with cold 100% methanol and repeat wash once with PBS once. Add Li-Cor blocking buffer to each well and incubate 1.5 hours at RT. Remove blocking buffer and add primary antibody mixture (rabbit anti pERK, mouse anti GAPDH). Incubate at 4° C. overnight. Day 2, wash with PBST (Tween-20 in PBS) with total 3 times and then add secondary antibody mixture (goat anti rabbit 800CW (1:800 dilution in the combined solution) and goat anti mouse 680RD (1:800 dilution in the combined solution)), incubate for 60 minutes at RT away from light. Repeat washing with PBST 3 times. After final wash, centrifuge plate up-side-down at 1000 rpm to remove wash solution completely from wells. Before plate scanning, clean the bottom plate surface and the Odyssey* Imager scanning bed (if applicable) with moist, lint-free tissue to avoid any obstructions during scanning. Scan plate with detection in both 700 and 800 nm channels.

Setting [1] is: Homo sapiens, PNAC-1/HPAC cell, 3 hours compound incubation, read-out: p-ERK IC50.

Take `C#Cc1c(F)ccc2cccc(-c3nc4c5c(nc(OC[C@@]67CCCN6C[C@H](F)C7)nc5c3F)N3CC5CCC(N5)[C@@H]3CO4)c12` (single isomer, unassigned) [Compound 9]: the IC50 under setting [1] came to 308 nM. Still for that read-out and setting: the value for `C#Cc1c(F)ccc2cccc(-c3nc4c5c(nc(OC[C@@H]6C[C@@H](F)CN6C)nc5c3F)N3CC5CCC(N5)[C@H]3CO4)c12` (stereo in doubt) [Compound 32, (5aS,6R,9S)-2-(8-ethynyl-7-fluoronaphthalen-1-yl)-1-fluoro-12-(((2S,4R)-4-fluoro-1-methylpyrrolidin-2-yl)methoxy)-5a,6,7,8,9,10-hexahydro-5H-4-oxa-3,10a,11,13,14-pentaaza-6,9-methanonaphtho[1,8-ab]heptalene] was 140 nM; that for `C#Cc1c(F)ccc2cccc(-c3nc4c5c(nc(C(=O)N[C@H](C)CN(C)C)nc5c3F)N3CC5CCC(N5)[C@H]3CO4)c12` (stereo in doubt) [Compound 33, (5aS,6R,9S)—N—((R)-1-(dimethylamino)propan-2-yl)-2-(8-ethynyl-7-fluoronaphthalen-1-yl)-1-fluoro-5a,6,7,8,9,10-hexahydro-5H-4-oxa-3,10a,11,13,14-pentaaza-6,9-methanonaphtho[1,8-ab]heptalene-12-carboxamide] was 75 nM; that for `[2H]C#Cc1c(F)ccc2cccc(-c3nc4c5c(nc(OC[C@@]67CCCN6C[C@H](F)C7)nc5c3F)N3CC5CCC(N5)[C@H]3CO4)c12` (stereo in doubt) [Compound 34, (5aS,6R,9S)-2-(8-(ethynyl-d)-7-fluoronaphthalen-1-yl)-1-fluoro-12-(((2R,7aS)-2-fluorotetrahydro-1H-pyrrolizin-7a(5H)-yl)methoxy)-5a,6,7,8,9,10-hexahydro-5H-4-oxa-3,10a,11,13,14-pentaaza-6,9-methanonaphtho[1,8-ab]heptalene] was 5 nM. For the compound `C#Cc1c(F)ccc2cccc(-c3nc4c5c(nc(OCC67CCCN6C(COC(=O)N(C)C)CC7)nc5c3F)N3CC5CCC(N5)[C@H]3CO4)c12` (stereo in doubt) [Compound 37, (7a-((((5aS,6R,9S)-2-(8-ethynyl-7-fluoronaphthalen-1-yl)-1-fluoro-5a,6,7,8,9,10-hexahydro-5H-4-oxa-3,10a,11,13,14-pentaaza-6,9-methanonaphtho[1,8-ab]heptalen-12-yl)oxy)methyl)hexahydro-1H-pyrrolizin-3-yl)methyl dimethylcarbamate], the IC50 (Homo sapiens, HPAC, 3 h, read-out: p-ERK IC50, PNAC-1/HPAC cell, 3 hours compound incubation) came to 50 nM. As for `C#Cc1c(F)ccc2cccc(-c3nc4c5c(nc(OCC67CCCN6C(COC(=O)N(C)C)CC7)nc5c3F)N3CC5CCC(N5)[C@H]3CO4)c12` (stereo in doubt) [Compound 38, (7a-((((5aS,6R,9S)-2-(8-ethynyl-7-fluoronaphthalen-1-yl)-1-fluoro-5a,6,7,8,9,10-hexahydro-5H-4-oxa-3,10a,11,13,14-pentaaza-6,9-methanonaphtho[1,8-ab]heptalen-12-yl)oxy)methyl)hexahydro-1H-pyrrolizin-3-yl)methyl dimethylcarbamate], where the note is “read-out: p-ERK IC50, PNAC-1/HPAC cell, 3 hours compound incubation”, the IC50 turned out to be 70 nM. Take `C#Cc1c(F)ccc2cccc(-c3nc4c5c(nc(OCC6(CN7CCOC8(CC8)C7)CC6)nc5c3F)N3CC5CCC(N5)[C@H]3CO4)c12` (stereo in doubt) [Compound 46, (5aS,6R,9S)-12-((1-((4-oxa-7-azaspiro[2.5]octan-7-yl)methyl)cyclopropyl)methoxy)-2-(8-ethynyl-7-fluoronaphthalen-1-yl)-1-fluoro-5a,6,7,8,9,10-hexahydro-5H-4-oxa-3,10a,11,13,14-pentaaza-6,9-methanonaphtho[1,8-ab]heptalene]: the IC50 under setting [1] is 328 nM. Take `C#Cc1c(F)ccc2cccc(-c3nc4c5c(nc(OCC67CCCN6C(COC(=O)N6CCOCC6)CC7)nc5c3F)N3CC5CCC(N5)[C@H]3CO4)c12` (stereo in doubt) [Compound 47, (7a-((((5aS,6R,9S)-2-(8-ethynyl-7-fluoronaphthalen-1-yl)-1-fluoro-5a,6,7,8,9,10-hexahydro-5H-4-oxa-3,10a,11,13,14-pentaaza-6,9-methanonaphtho[1,8-ab]heptalen-12-yl)oxy)methyl)hexahydro-1H-pyrrolizin-3-yl)methyl morpholine-4-carboxylate]: the IC50 under setting [1] is 105 nM. On the same count and under the same terms, the value for `C#Cc1c(F)ccc2cccc(-c3nc4c5c(nc(OCC6(CN7C8CCC7COC8)CC6)nc5c3F)N3CC5CCC(N5)[C@H]3CO4)c12` (stereo in doubt) [Compound 49, (5aS,6R,9S)-12-((1-((3-oxa-8-azabicyclo[3.2.1]octan-8-yl)methyl)cyclopropyl)methoxy)-2-(8-ethynyl-7-fluoronaphthalen-1-yl)-1-fluoro-5a,6,7,8,9,10-hexahydro-5H-4-oxa-3,10a,11,13,14-pentaaza-6,9-methanonaphtho[1,8-ab]heptalene] was 851 nM; that for `Cc1cc(N)nc(-c2nc3c4c(nc(OC[C@@]56CCCN5C[C@H](F)C6)nc4c2F)N2CC4CCC(N4)[C@H]2CO3)c1C(F)(F)F` (stereo in doubt) [Compound 53, 6-((5aS,6R,9S)-1-fluoro-12-(((2R,7aS)-2-fluorotetrahydro-1H-pyrrolizin-7a(5H)-yl)methoxy)-5a,6,7,8,9,10-hexahydro-5H-4-oxa-3,10a,11,13,14-pentaaza-6,9-methanonaphtho[1,8-ab]heptalen-2-yl)-4-methyl-5-(trifluoromethyl) pyridin-2-amine] was 457 nM. In the case of `Oc1cc(-c2nc3c4c(nc(OC[C@@]56CCCN5C[C@H](F)C6)nc4c2F)N2C[C@@H]4CC[C@@H](N4)C2CO3)c2c(Cl)cccc2c1` (stereo partly drawn) [Compound 1, 5-Chloro-4-((6R,9S)-1-fluoro-12-(((2R,7aS)-2-fluorotetrahydro-1H-pyrrolizin-7a(5H)-yl)methoxy)-5a,6,7,8,9,10-hexahydro-5H-4-oxa-3,10a,11,13,14-pentaaza-6,9-methanonaphtho[1,8-ab]heptalen-2-yl)naphthalen-2-ol], the IC50 under setting [1] was 33 nM. On the same count and under the same terms, the figure for `Oc1cc(-c2nc3c4c(nc(OCC56CCCN5CCC6)nc4c2F)N2C[C@@H]4CC[C@@H](N4)C2CO3)c2c(Cl)cccc2c1` (stereo partly drawn) [Compound 2, 5-chloro-4-((6R,9S)-1-fluoro-12-((tetrahydro-1H-pyrrolizin-7a(5H)-yl)methoxy)-5a,6,7,8,9,10-hexahydro-5H-4-oxa-3,10a,11,13,14-pentaaza-6,9-methanonaphtho[1,8-ab]heptalen-2-yl)naphthalen-2-ol] is 730 nM; for `Oc1cc(-c2nc3c4c(nc(OC[C@@]56CCCN5C[C@H](F)C6)nc4c2F)N2C[C@@H]4CC[C@@H](N4)C2CO3)c2cc(F)ccc2c1` (stereo partly drawn) [Compound 3, 6-fluoro-4-((6R,9S)-1-fluoro-12-(((2R,7aS)-2-fluorotetrahydro-1H-pyrrolizin-7a(5H)-yl)methoxy)-5a,6,7,8,9,10-hexahydro-5H-4-oxa-3,10a,11,13,14-pentaaza-6,9-methanonaphtho[1,8-ab]heptalen-2-yl)naphthalen-2-ol] it is 26 nM; for `CCc1c(F)ccc2cccc(-c3nc4c5c(nc(OC[C@@]67CCCN6C[C@H](F)C7)nc5c3F)N3C[C@@H]5CC[C@@H](N5)C3CO4)c12` (stereo partly drawn) [Compound 4, (6R,9S)-2-(8-ethyl-7-fluoronaphthalen-1-yl)-1-fluoro-12-(((2R,7aS)-2-fluorotetrahydro-1H-pyrrolizin-7a(5H)-yl)methoxy)-5a,6,7,8,9,10-hexahydro-5H-4-oxa-3,10a,11,13,14-pentaaza-6,9-methanonaphtho[1,8-ab]heptalene] it is 121 nM. Same read-out and setting: the figure for `C#Cc1cccc2cc(O)cc(-c3nc4c5c(nc(OC[C@@]67CCCN6C[C@H](F)C7)nc5c3F)N3C[C@@H]5CC[C@@H](N5)C3CO4)c12` (stereo partly drawn) [Compound 5, 5-ethynyl-4-((6R,9S)-1-fluoro-12-(((2R,7aS)-2-fluorotetrahydro-1H-pyrrolizin-7a(5H)-yl)methoxy)-5a,6,7,8,9,10-hexahydro-5H-4-oxa-3,10a,11,13,14-pentaaza-6,9-methanonaphtho[1,8-ab]heptalen-2-yl)naphthalen-2-ol] is 77 nM; for `Oc1cc(-c2nc3c4c(nc(OC[C@@]56CCCN5C[C@H](F)C6)nc4c2F)N2C[C@@H]4CC[C@@H](N4)C2CO3)c2c(F)cccc2c1` (stereo partly drawn) [Compound 6, 5-fluoro-4-((6R,9S)-1-fluoro-12-(((2R,7aS)-2-fluorotetrahydro-1H-pyrrolizin-7a(5H)-yl)methoxy)-5a,6,7,8,9,10-hexahydro-5H-4-oxa-3,10a,11,13,14-pentaaza-6,9-methanonaphtho[1,8-ab]heptalen-2-yl)naphthalen-2-ol] it is 86 nM; for `C#Cc1c(F)ccc2cc(O)cc(-c3nc4c5c(nc(OC[C@@]67CCCN6C[C@H](F)C7)nc5c3F)N3C[C@@H]5CC[C@@H](N5)C3CO4)c12` (stereo partly drawn) [Compound 7, 5-ethynyl-6-fluoro-4-((6R,9S)-1-fluoro-12-(((2R,7aS)-2-fluorotetrahydro-1H-pyrrolizin-7a(5H)-yl)methoxy)-5a,6,7,8,9,10-hexahydro-5H-4-oxa-3,10a,11,13,14-pentaaza-6,9-methanonaphtho[1,8-ab]heptalen-2-yl)naphthalen-2-ol] it is 34 nM.
